Assay results taken from patent US11083732B2, “Use of negative modulators of GABA receptors containing alpha5 subunits as fast acting antidepressants” (University of Maryland, Baltimore, priority 2014, dated 2021).
“Also recorded” adds a separate entry of the source.

Legend:
[1] = system: GluA1; experiment: Western blotting of GluA1 in SLM tissue of hippocampal area CA1; format: in vivo, rat
Description: Western blotting. SLM tissue punches (1 mm diameter) were dissected from area CA1 in hippocampal slices and pooled (3-4 punches/sample). Membranes were probed with antibodies directed against GluA1 (Millipore Bioscience Research Reagents) and β-actin (Cell Signaling Technology). Levels of proteins are expressed as the ratio of intensity normalized to β-actin intensity, as done previously (Kallarackal et al., 2013).
SLM tissue was harvested from slices taken from unstressed rats, rats subjected to ten days of CRS and given a vehicle injection 24 hrs earlier, and rats subjected to ten days of CRS and given an injection of L-655,708 24 hrs earlier (0.7 mg/kg, i.p.). These were the same rats used for FIG. 6.

[2] = system: amnestic properties of the anesthetic etomidate; details: 0.7 mg/kg i.p.; Martin et al (2009); cited from earlier work

Q: What does the source list for `CCOC(=O)c1ncn2c1[C@@H]1CCCN1C(=O)c1cc(OC)ccc1-2` [L-655,708, ethyl (13aS)-7-methoxy-9-oxo-11, 12,13,13 a-terahydro-9H-imidazo[1,5-a]pyrrolo[2,1-c] [1,4]benzodiazepine-1-carboxylate]?
A: phosphorylation of S831 of GluA1 in SLM ([1]; CRS rats, 24 hours after injection): increased; GluA1 protein level in SLM (normalized to β-actin) ([1]; CRS rats, L-655,708 24 hrs earlier): not significantly different than levels in unstressed controls; also recorded: increased; phosphorylation of S831 and total GluA1 expression in SLM ([1]; unstressed animals, 24 hours after injection): no effect; effect on amnestic properties of etomidate [2]: reverse the amnestic properties
